Columns and labels:
[1] = molecular target: T1, PI3Kδ (p110δ/p85α) (Homo sapiens, UniProt O00329); assay: PI3Kδ scintillation proximity assay (assay A); format: biochemical; conditions: 20 μM PIP2, 20 μM ATP, 4 nM PI3Kδ, 210 minutes, room temperature
T1 construct: purchased Millipore (Bedford, Mass.)
Procedure: PI3Kδ Scintillation Proximity Assay
[γ-33P] ATP (10 mCi/mL) was purchased from Perkin-Elmer (Waltham, Mass.). […] PI3Kδ (p110δ/p85α) was purchased from Millipore (Bedford, Mass.). ATP, MgCl2, DTT, EDTA, MOPS and CHAPS were purchased from Sigma-Aldrich (St. Louis, Mo.). Wheat Germ Agglutinin (WGA) YSi SPA Scintillation Beads was purchased from GE healthcare life sciences (Piscataway, N.J.).
The kinase reaction was conducted in polystyrene 384-well matrix white plate from Thermo Fisher Scientific in a final volume of 25 μL. Inhibitors were first diluted serially in DMSO and added to the plate wells before the addition of other reaction components. The final concentration of DMSO in the assay was 0.5%. The PI3K assays were carried out at room temperature in 20 mM MOPS, pH 6.7, 10 mM MgCl2, 5 mM DTT and CHAPS 0.03%. Reactions were initiated by the addition of ATP, the final reaction mixture consisted of 20 μM PIP2, 20 μM ATP, 0.2 μCi [γ-^33P] ATP, 4 nM PI3Kδ. Reactions were incubated for 210 minutes and terminated by the addition of 40 μL SPA beads suspended in quench buffer: 150 mM potassium phosphate pH 8.0, 20% glycerol. 25 mM EDTA, 400 μM ATP. The final concentration of SPA beads is 1.0 mg/mL. After the plate sealing, plates were shaken overnight at room temperature and centrifuged at 1800 rpm for 10 minutes, the radioactivity of the product was determined by scintillation counting on Topcount (Perkin-Elmer). IC50 determination was performed by fitting the curve of percent control activity versus the log of the inhibitor concentration using the GraphPad Prism 3.0 software.

[2] = test system: Pfeiffer cell line (diffuse large B cell lymphoma); assay: Pfeiffer cell proliferation assay; format: cell-based; conditions: Homo sapiens, [3H]-thymidine incorporation after 3-4 days plus 12 hours
Procedure: Pfeiffer Cell Proliferation Assay
Pfeiffer cell line (diffuse large B cell lymphoma) was purchased from ATCC (Manassas, Va.) and maintained in the culture medium recommended (RPMI and 10% FBS). To measure the anti-proliferation activity of the compounds, the Pfeiffer cells were plated with the culture medium (2×10^3 cells/well/per 200 μl) into 96-well ultra-low binding plates (Corning, Corning, N.Y.), in the presence or absence of a concentration range of test compounds. After 3-4 days, [^3H]-thymidine (1 μCi/well) (PerkinElmer, Boston, Mass.) in PBS was then added to the cell culture for an additional 12 hours before the incorporated radioactivity was separated by filtration with water through GF/B filters (Packard Bioscience, Meridenj, Conn.) and measured by liquid scintillation counting with a TopCount (Packard Bioscience).

T1 sequence (O00329 whole entry): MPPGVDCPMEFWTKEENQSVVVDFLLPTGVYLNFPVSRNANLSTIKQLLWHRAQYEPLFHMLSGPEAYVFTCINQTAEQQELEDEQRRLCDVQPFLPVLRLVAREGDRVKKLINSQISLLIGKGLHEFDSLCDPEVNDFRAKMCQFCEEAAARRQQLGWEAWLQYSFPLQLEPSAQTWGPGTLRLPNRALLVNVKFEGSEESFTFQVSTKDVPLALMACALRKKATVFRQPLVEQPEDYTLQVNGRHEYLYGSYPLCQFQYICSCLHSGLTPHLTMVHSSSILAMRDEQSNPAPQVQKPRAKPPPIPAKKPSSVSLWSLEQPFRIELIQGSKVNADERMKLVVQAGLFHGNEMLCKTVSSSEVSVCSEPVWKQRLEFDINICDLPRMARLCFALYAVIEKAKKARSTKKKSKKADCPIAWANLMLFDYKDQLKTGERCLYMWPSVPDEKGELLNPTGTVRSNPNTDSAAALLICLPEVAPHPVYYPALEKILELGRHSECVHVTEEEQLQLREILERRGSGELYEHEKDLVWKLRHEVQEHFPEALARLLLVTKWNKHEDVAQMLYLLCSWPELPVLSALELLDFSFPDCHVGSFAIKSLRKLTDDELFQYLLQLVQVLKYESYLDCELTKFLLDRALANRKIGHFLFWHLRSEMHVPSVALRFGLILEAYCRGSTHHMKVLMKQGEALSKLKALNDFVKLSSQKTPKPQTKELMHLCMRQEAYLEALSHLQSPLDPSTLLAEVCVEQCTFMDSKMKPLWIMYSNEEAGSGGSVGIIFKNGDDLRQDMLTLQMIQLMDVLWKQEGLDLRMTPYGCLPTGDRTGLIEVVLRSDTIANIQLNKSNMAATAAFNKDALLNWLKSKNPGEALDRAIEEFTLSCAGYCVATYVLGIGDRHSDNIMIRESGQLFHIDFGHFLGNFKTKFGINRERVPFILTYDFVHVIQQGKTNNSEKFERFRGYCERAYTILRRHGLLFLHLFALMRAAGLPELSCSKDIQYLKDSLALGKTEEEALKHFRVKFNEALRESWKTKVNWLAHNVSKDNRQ
T1 sequence (P27986 whole entry partner): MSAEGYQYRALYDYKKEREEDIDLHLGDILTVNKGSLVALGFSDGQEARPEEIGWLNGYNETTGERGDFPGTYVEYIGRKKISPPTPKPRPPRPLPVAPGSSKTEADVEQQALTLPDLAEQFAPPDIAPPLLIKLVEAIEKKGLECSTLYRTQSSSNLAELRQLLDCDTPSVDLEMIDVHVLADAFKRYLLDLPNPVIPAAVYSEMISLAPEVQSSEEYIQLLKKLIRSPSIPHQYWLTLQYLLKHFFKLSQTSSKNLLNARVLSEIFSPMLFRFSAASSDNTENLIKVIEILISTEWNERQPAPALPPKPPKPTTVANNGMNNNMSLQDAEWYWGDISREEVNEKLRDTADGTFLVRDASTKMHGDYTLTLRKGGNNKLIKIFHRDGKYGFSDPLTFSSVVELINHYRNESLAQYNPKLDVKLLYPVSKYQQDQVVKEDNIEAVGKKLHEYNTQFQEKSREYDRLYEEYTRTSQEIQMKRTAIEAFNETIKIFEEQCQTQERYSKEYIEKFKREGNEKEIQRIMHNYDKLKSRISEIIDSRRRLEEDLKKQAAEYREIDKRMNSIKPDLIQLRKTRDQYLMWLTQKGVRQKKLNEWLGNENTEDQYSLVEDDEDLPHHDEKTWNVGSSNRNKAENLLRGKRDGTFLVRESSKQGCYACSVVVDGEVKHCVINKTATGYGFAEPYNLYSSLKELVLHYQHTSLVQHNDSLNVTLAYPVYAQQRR

IC50 [1] | IC50 [2] | Structure (SMILES)
< 50 nM | > 3000 nM | CC(Nc1ncnc2[nH]cnc12)c1cc(Cl)c2cncn2c1N1CCN(C(=O)CC#N)CC1 (stereo not drawn) [Example 10, 3-(4-{8-Chloro-6-[1-(9H-purin-6-ylamino)ethyl]imidazo[1,5-a]pyridin-5-yl}piperazin-1-yl)-3-oxopropanenitrile]
200 to 750 nM | 1000 to 3000 nM | CC(Nc1ncnc2[nH]cnc12)c1cc(Cl)c2nccn2c1-c1cccc(F)c1 (stereo not drawn) [Example 3, N-{1-[8-Chloro-5-(3-fluorophenyl)imidazo[1,2-a]pyridin-6-yl]ethyl}-9H-purin-6-amine]
< 50 nM | ≤ 100 nM | COc1cccc(-c2c(C(C)Nc3ncnc4[nH]cnc34)cc(Cl)c3ccnn23)c1 (stereo not drawn) [Example 28, N-{1-[4-chloro-7-(3-methoxyphenyl)pyrazolo[1,5-a]pyridin-6-yl]ethyl}-9H-purin-6-amine]

More lines, now with the values behind:

Structure (SMILES) | IC50 [1] | IC50 [2]
CCC(Nc1ncnc2[nH]cnc12)c1cc(Cl)c2cncn2c1-c1cccc(F)c1 (stereo not drawn) [Example 18, N-{1-[8-Chloro-5-(3-fluorophenyl)imidazo[1,5-a]pyridin-6-yl]propyl}-9H-purin-6-amine] | < 50 nM | 100 to 500 nM
CC(Nc1ncnc2[nH]cnc12)c1cc(Cl)c2cncn2c1N1CCN(C2CCC2)CC1 (stereo not drawn) [Example 15, N-{1-[8-Chloro-5-(4-cyclobutylpiperazin-1-yl)imidazo[1,5-a]pyridin-6-yl]ethyl}-9H-purin-6-amine] | 50 to 200 nM | ≤ 100 nM
CC(Nc1ncnc2[nH]cnc12)c1cc(Cl)c2cncn2c1-c1cccc(F)c1 (racemic) [Example 1, N-{1-[8-Chloro-5-(3-fluorophenyl)imidazo[1,5-a]pyridin-6-yl]ethyl}-9H-purin-6-amine] | < 50 nM | ≤ 100 nM
